Assays:
[1] = target: T1, KATP channels in large DRG neurons (Rattus norvegicus, UniProt P70673+Q09429); assay: Cell-attached single-channel patch-clamp recording of KATP channel activity (NPo); assay type: cell-based; conditions: for NPo steady-state value 10 minutes after application of SNAP: SNAP 100 μM, n = 7
T1 construct: native KATP channels in large DRG neurons; endogenous in cells; host or cells: acutely dissociated large-diameter neurons from rat L4/L5 dorsal root ganglia (sham-operated or spinal nerve ligated animals)
From the text: We harvested control (L4 and L5) or axotomized (L5) ganglia, from control (SS) or hyperalgesic rats (SNL) respectively, between the 17th and 28th postoperative days. We sacrificed animals by decapitation under deep isoflurane anesthesia, excised ganglia through a lumbar incision, and at the same time confirmed accuracy of initial surgery.
For patch-clamp recordings, we placed excised DRG into separate 35 mm Petri dishes containing cold, oxygenated, Hanks Balanced Salt Solution (Gibko, Invitrogen, Grand Islan, NY), and minced them with iris scissors. We dissociated ganglia enzymatically in a solution containing 0.25 ml 0.05% w:v liberase blendzyme 2 (Roche Diagnostics Corp., Indianapolis, IN) and 0.25 ml DMEM/F12 with glutaMAX (Dulbecco's modified Eagle's medium F12; Gibco, Invitrogen Corp., Carlsbad, CA) in an incubator at 37°C for 30 min. […] Finally, we plated cells onto poly-l-lysine-coated 12-mm glass coverslips (Deutsche Spiegelglas; Carolina Biologic Supply, Burlington, NC), kept them in a humidified incubator at 37°C with 95% air and 5% CO2, and studied them within 3–8 h of dissociation.
We visualized plated neurons using an inverted Nikon Diaphot 300 microscope with Hoffman modulation optic system. […] Large neuronal somata, roughly correspond to large, myelinated Aβ fibers.
(§1) We recorded current passing through single channels in inside-out or cell-attached patch configurations. In cell-attached patches, both bath and pipette (extracellular) solutions were composed of the following: 140 mM KCl, 10 mM HEPES, 5.5 mM dextrose, and 1 mM EGTA. In inside-out patches, the bath (intracellular) solution contained 140 mM KCl, 1.2 mM MgCl2, 10 mM HEPES, 1.5 mM EGTA and 5.5 mM dextrose. The pipette (extracellular) solution was of the same composition as that used in cell-attached recordings. The pH of all solutions was adjusted to 7.4 with KOH. Osmolality was adjusted approximately to 300 mOsm/l by adding sucrose if necessary. We pulled patch micropipettes from borosilicate glass capillaries using a Flaming/Brown micropipette puller, model P-97 (Sutter, San Rafael, CA) and flame polished them with a microforge polisher (Narishige, Tokyo, Japan) prior to use. Their resistance ranged between 3 and 6 MΩ when filled with the internal solution, and placed into the recording solutions.
Sampling frequency of single-channel data was 5 KHz with a low-pass filter (1 KHz). […] We applied a conventional 50% current amplitude threshold level criterion to determine open events. Channel open probability (Po) was determined from the ratios of the area under the peaks in the amplitude histograms fitted by a Gaussian distribution. We calculated channel activity as NPo (where N is the number of observed channels in the patch) from data samples of either 30 s (in inside-out recordings), or 60 s (in cell-attached recordings), in the steady state. In inside-out recordings, NPo of the KATP channels was normalized to the baseline NPo value obtained before test drugs at bathing solution without ATP (indicating relative channel activity).

[2] = target: T2, SUR1-C717S/Kir6.2 channels (Rattus norvegicus, UniProt P70673+Q09429, C717S); assay: Inside-out patch recording of mutated channels expressed in COS7 cells; assay type: biochemical
T2 construct: A full-length Kir cDNA and a full-length SUR cDNA were subcloned into the mammalian expression vector; expressed in transfected cells; host or cells: COS7 cells, pcDNA3.1(-) vectors, GFP cDNA co-transfected as a separate reporter
Experimental: KATP channel-deficient COS7 cells were plated at a density of 3 × 10^5/dish (35 mm in diameter) and cultured in Dulbecco's modified Eagle's medium supplemented with 10% fetal calf serum. Rat Kir6.2 (GenBank X97041) and rat SUR1 (GenBank X97279) cDNAs were used for expression study. A truncated form of Kir6.2 lacking the last 36 amino acids at the C-terminus was obtained by polymerase chain reaction amplification. Polymerase chain reaction products were cloned into the pCR3.1 vector by using the TA cloning system (Invitrogen Corp., Carlsbad, CA, USA) and then cloned into the pcDNA3.1 (-) vector (Invitrogen Corp.) for mammalian expression. Point mutation of cysteine at position 717 (C717), C806, C1378, C1446, and C1491 within SUR1 to serine (C717S, C806S, C1378S, C1446S, and C1491S) was performed by using the Site-Directed Mutagenesis system (Invitrogen Corp.). All cDNA products were sequenced by using the BigDye terminator cycle sequencing kit and an ABI PRISM 377 DNA sequencer (Applied Biosystems, Foster City, CA) to confirm the sequence. A full-length Kir cDNA and a full-length SUR cDNA were subcloned into the mammalian expression vector pcDNA3.1 (-). For electrophysiological recordings, either wild-type or mutated pcDNA3.1 (-) Kir6.2 alone (1 μg), or pcDNA3.1 (-) Kir6.2 (1 μg) plus pcDNA3.1 (-) SUR1 (3 μg) were transfected into COS7 cells with green fluorescent protein cDNA as a reporter gene by using lipofectamine and Opti-MEN 1 reagents (Life Technologies Inc., Rockville, MD) according to the manufacturer's instructions. After transfection, cells were cultured at 37°C with 95% air and 5% CO2 for 48–72 h before being subjected to electrophysiological recordings.
as §1
We recorded single channel currents at room temperature (20–25°C) using an Axon CNS Multiclamp 700B amplifier, digitized them using an analog-to-digital converter (Axon CNS DigiData 1440A; Axon Instruments, Foster, CA), and stored them into a PC. Sampling frequency of single-channel data was 5 KHz with a low-pass filter (1 KHz). We used pClamp version 10.2 software (Axon Instruments) for data acquisition and analysis. […] Channel open probability (Po) was determined from the ratios of the area under the peaks in the amplitude histograms fitted by a Gaussian distribution. We calculated channel activity as NPo (where N is the number of observed channels in the patch) from data samples of either 30 s (in inside-out recordings), or 60 s (in cell-attached recordings), in the steady state. […]

T1 sequence (Q09429 whole entry): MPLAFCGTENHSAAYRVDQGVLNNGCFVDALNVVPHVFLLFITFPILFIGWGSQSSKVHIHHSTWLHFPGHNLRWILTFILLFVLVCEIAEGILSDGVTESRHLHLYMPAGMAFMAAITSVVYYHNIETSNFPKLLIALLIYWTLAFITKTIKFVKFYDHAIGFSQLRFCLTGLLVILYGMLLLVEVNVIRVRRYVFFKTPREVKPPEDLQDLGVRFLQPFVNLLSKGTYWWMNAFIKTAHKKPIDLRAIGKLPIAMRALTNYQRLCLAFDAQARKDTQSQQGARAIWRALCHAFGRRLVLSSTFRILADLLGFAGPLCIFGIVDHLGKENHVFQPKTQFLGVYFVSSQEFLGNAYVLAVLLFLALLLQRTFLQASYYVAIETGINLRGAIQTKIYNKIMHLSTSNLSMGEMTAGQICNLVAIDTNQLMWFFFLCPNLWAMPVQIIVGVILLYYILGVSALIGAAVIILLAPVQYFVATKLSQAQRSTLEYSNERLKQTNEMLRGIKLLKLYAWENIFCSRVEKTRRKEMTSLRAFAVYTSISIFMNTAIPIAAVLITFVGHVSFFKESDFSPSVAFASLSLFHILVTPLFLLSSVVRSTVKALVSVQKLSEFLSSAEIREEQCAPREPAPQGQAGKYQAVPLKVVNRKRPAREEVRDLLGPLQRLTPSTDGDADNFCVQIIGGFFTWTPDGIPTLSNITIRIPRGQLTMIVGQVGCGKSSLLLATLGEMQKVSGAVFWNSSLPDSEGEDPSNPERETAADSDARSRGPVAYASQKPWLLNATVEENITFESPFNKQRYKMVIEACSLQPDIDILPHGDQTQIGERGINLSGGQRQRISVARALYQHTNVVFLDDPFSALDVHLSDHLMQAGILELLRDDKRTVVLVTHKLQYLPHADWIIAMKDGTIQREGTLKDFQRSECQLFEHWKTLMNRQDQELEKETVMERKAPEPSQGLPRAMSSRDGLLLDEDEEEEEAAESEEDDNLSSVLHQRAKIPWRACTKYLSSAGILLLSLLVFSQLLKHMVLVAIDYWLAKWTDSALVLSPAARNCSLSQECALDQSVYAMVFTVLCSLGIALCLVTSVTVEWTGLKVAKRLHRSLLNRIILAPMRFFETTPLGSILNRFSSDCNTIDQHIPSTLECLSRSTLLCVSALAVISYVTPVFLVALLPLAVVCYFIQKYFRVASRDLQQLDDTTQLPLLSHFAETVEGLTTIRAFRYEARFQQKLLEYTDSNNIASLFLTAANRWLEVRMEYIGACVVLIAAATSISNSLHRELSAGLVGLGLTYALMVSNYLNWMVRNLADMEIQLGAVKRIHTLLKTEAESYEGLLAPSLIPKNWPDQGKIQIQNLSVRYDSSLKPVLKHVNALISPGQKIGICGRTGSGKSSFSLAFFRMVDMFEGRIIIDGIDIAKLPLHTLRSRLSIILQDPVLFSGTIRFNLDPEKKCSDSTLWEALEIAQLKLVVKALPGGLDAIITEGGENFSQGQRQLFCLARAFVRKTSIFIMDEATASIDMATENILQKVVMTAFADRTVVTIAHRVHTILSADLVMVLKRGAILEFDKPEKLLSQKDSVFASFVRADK
T1 sequence (P70673 whole entry): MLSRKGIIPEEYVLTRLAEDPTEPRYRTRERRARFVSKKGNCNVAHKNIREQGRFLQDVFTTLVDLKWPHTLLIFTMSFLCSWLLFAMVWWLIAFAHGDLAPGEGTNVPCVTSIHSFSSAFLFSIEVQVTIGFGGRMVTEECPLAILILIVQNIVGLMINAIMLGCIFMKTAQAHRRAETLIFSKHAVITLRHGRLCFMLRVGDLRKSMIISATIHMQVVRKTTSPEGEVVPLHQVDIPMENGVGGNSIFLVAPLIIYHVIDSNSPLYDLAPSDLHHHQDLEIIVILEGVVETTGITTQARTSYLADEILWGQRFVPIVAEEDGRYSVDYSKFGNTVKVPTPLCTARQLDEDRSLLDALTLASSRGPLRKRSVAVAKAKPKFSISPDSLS
T2 sequence (Q09429 whole entry C717S): as the sequence (Q09429 whole entry) above, with C717S counted along it
T2 sequence (P70673 whole entry): as the sequence (P70673 whole entry) above

washout period after which effects were reversible ([1]; SNAP, data not shown): 2 to 5 min | NPo steady-state value 10 minutes after application of SNAP ([1]; SNL neurons): 0.31 ± 0.09 | concentration at which KATP channel activation reaches a saturating plateau ([1]; SS and SNL neurons): ≥ 100 µM | NPo steady-state value 10 minutes after application of SNAP ([1]; SS neurons): 0.27 ± 0.07 | effect on recombinant channel activity ([2]; SNAP 1 mM in the presence of 1 mM [ATP]i): significantly activated | potency in activating the channel compared with the wild-type SUR1/Kir6.2 channel ([2]; SNAP, n = 8, p < 0.02 vs. wild type): significantly less potent
Substance: S-nitroso-N-acetylpenicillamine [SNAP]

— PMC2673211, “Nitric oxide activates ATP-sensitive potassium channels in mammalian sensory neurons: action by direct S-nitrosylation” (Molecular Pain, 2009)
